In US20240358693A1, “METHODS OF TREATING PAIN” (Aisa Pharma, Inc., priority 2023, published 2024):

System: participants with SSc-RP
Assay: Scleroderma Health Assessment Questionnaire (SHAQ): disability indices and visual analog scales
Type: in vivo, human
Details: Day 12 vs baseline; PP Population, Part A; SSc patients; sensitivity analysis
Excerpt: The standard, validated, patient reported outcome measures tool for SSc patients, the Scleroderma Health Assessment Questionnaire (SHAQ), will be used to assess the participant qualify of life. Details are attached in the Appendix. The participant quality of life will be scored, and a disability index calculated for each questionnaire completed by the patient at Screening and each in-clinic visit. The absolute change in participant quality of life from baseline to the end of each dosing period will be calculated similar to frequency data as before.
The SHAQ includes a Raynaud's VAS, which will be reported at screening and each in-clinic visit. The absolute change in Raynaud-VAS, assessed by the participants response to the SHAQ question ‘In the past 7 days, how much have your Raynaud's interfered with your daily activities?’ at baseline and the end of each dosing period will be calculated similar to frequency data as before.
The SHAQ is used to calculate a Disability Index to assess the participant qualify of life. The eight categories assessed by the Disability Index are 1) dressing and grooming, 2) arising, 3) eating, 4) walking, 5) hygiene, 6) reach, 7) grip, and 8) common daily activities. For each of these categories, patients report the amount of difficulty they have in performing two or three specific activities.
There are four possible responses for the Disability Index questions: • Without any difficulty=0 • With some difficulty=1 • With much difficulty=2 • Unable to do=3. • The highest score reported by the patient for any component question of the eight categories determines the score for that category. • If a component question is left blank or the response is too ambiguous to assign a score, then the score for that category is determined by the remaining completed question(s). • If all component questions are blank or if more than one answer is given, then follow up with the respondent is required. • If the respondent's mark is between the response columns, then move it to the closest one. If it's directly between the two, move it to the higher one.
Each of the disability items on the SHAQ has a companion aids/devices variable that is used to record what type(s) of assistance, if any, the participant uses for his/her usual activities. These variables (see below) are coded as follows: • 0=No assistance is needed. • 1=A special device is used by the patient in his/her usual activities. • 2=The patient usually needs help from another person. • 3=The patient usually needs BOTH a special device AND help from another person.
The scoring variables and scoring rules permit the computation of two disability indices, the Standard Disability Index and the Alternative Disability Index.
This question results in a new set of category scores that are computed by adjusting the score for each category, if necessary, based on the patient's use of an aid or device or assistance for that category. If either devices and/or help from another person are checked for a category, the score is set to “2”, unless the score is already “3” (i.e., scores of “0” or “1” are increased to “2”). For example, if the highest score for the dressing category is “1”, and the patient says they use a device for dressing, the computed category score would be “2”. The sum of the computed categories scores is then calculated and divided by the number of categories answered. This gives a score in the 0 to 3 range.
The aid and device variables are not used to calculate the alternative disability index; it is calculated by adding the scores for each of the categories and dividing by the number of categories answered. This gives a score in the 0 to 3 range.
The standard, validated, patient reported outcome measures tool for SSc patients, the SHAQ, was collected at the time points specified in the study schedules (FIG. 2 and FIGS. 4A and 4B) to assess the participant's quality of life. The SHAQ included a Raynaud's VAS that will also be reported separately.

SMILES: COCCOC(=O)C1=C(C)NC(C)=C(C(=O)OC/C=C/c2ccccc2)C1c1cccc([N+](=O)[O-])c1 (stereo not drawn) [Any Cilnidipine]
- SHAQ Alternative Disability Index, Change from Baseline, Max: 0.38
- SHAQ Alternative Disability Index, Change from Baseline, Mean: −0.006
- SHAQ Alternative Disability Index, Change from Baseline, Median: 0.000
- SHAQ Alternative Disability Index, Change from Baseline, Min: −0.29
- SHAQ Alternative Disability Index, Change from Baseline, Q1: −0.125
- SHAQ Alternative Disability Index, Change from Baseline, Q3: 0.000
- SHAQ Alternative Disability Index, Percent Change from Baseline, Max: 300.0%
- SHAQ Alternative Disability Index, Percent Change from Baseline, Mean: 21.32%
- SHAQ Alternative Disability Index, Percent Change from Baseline, Median: −10.00%
- SHAQ Alternative Disability Index, Percent Change from Baseline, Min: −100.0%
- SHAQ Alternative Disability Index, Percent Change from Baseline, Q1: −28.57%
- SHAQ Alternative Disability Index, Percent Change from Baseline, Q3: 42.86%
- SHAQ Visual Analogue Scale - Finger Ulcers, Change from Baseline, Max: 0.40
- SHAQ Visual Analogue Scale - Finger Ulcers, Change from Baseline, Mean: −0.540
- SHAQ Visual Analogue Scale - Finger Ulcers, Change from Baseline, Median: −0.100
- SHAQ Visual Analogue Scale - Finger Ulcers, Change from Baseline, Min: −3.20
- SHAQ Visual Analogue Scale - Finger Ulcers, Change from Baseline, Q1: −0.700
- SHAQ Visual Analogue Scale - Finger Ulcers, Change from Baseline, Q3: 0.000
- SHAQ Visual Analogue Scale - Finger Ulcers, Percent Change from Baseline, Max: 133.3%
- SHAQ Visual Analogue Scale - Finger Ulcers, Percent Change from Baseline, Mean: −33.91%
- SHAQ Visual Analogue Scale - Finger Ulcers, Percent Change from Baseline, Median: −36.11%
- SHAQ Visual Analogue Scale - Finger Ulcers, Percent Change from Baseline, Min: −100.0%
- SHAQ Visual Analogue Scale - Finger Ulcers, Percent Change from Baseline, Q1: −100.00%
- SHAQ Visual Analogue Scale - Finger Ulcers, Percent Change from Baseline, Q3: −12.50%
- SHAQ Visual Analogue Scale - Intestinal Problems, Change from Baseline, Max: 2.90
- SHAQ Visual Analogue Scale - Intestinal Problems, Change from Baseline, Mean: −0.556
- SHAQ Visual Analogue Scale - Intestinal Problems, Change from Baseline, Median: −0.100
- SHAQ Visual Analogue Scale - Intestinal Problems, Change from Baseline, Min: −4.40
- SHAQ Visual Analogue Scale - Intestinal Problems, Change from Baseline, Q1: −1.100
- SHAQ Visual Analogue Scale - Intestinal Problems, Change from Baseline, Q3: 0.200
- SHAQ Visual Analogue Scale - Intestinal Problems, Percent Change from Baseline, Max: 181.3%
- SHAQ Visual Analogue Scale - Intestinal Problems, Percent Change from Baseline, Mean: −18.65%
- SHAQ Visual Analogue Scale - Intestinal Problems, Percent Change from Baseline, Median: −54.13%
- SHAQ Visual Analogue Scale - Intestinal Problems, Percent Change from Baseline, Min: −100.0%
- SHAQ Visual Analogue Scale - Intestinal Problems, Percent Change from Baseline, Q1: −100.00%
- SHAQ Visual Analogue Scale - Intestinal Problems, Percent Change from Baseline, Q3: 40.00%
- SHAQ Visual Analogue Scale - Overall Disease Severity, Change from Baseline, Max: 1.90
- SHAQ Visual Analogue Scale - Overall Disease Severity, Change from Baseline, Mean: −0.991
- SHAQ Visual Analogue Scale - Overall Disease Severity, Change from Baseline, Median: −1.100
- SHAQ Visual Analogue Scale - Overall Disease Severity, Change from Baseline, Min: −3.10
- SHAQ Visual Analogue Scale - Overall Disease Severity, Change from Baseline, Q1: −1.650
- SHAQ Visual Analogue Scale - Overall Disease Severity, Change from Baseline, Q3: −0.400
- SHAQ Visual Analogue Scale - Overall Disease Severity, Percent Change from Baseline, Max: 100.0%
- SHAQ Visual Analogue Scale - Overall Disease Severity, Percent Change from Baseline, Mean: −36.33%
- SHAQ Visual Analogue Scale - Overall Disease Severity, Percent Change from Baseline, Median: −42.89%
- SHAQ Visual Analogue Scale - Overall Disease Severity, Percent Change from Baseline, Min: −100.0%
- SHAQ Visual Analogue Scale - Overall Disease Severity, Percent Change from Baseline, Q1: −58.95%
- SHAQ Visual Analogue Scale - Overall Disease Severity, Percent Change from Baseline, Q3: −24.92%
- SHAQ Visual Analogue Scale - Pain, Change from Baseline, Max: 0.90
- SHAQ Visual Analogue Scale - Pain, Change from Baseline, Mean: −0.575
- SHAQ Visual Analogue Scale - Pain, Change from Baseline, Median: −0.600
- SHAQ Visual Analogue Scale - Pain, Change from Baseline, Min: −2.80
- SHAQ Visual Analogue Scale - Pain, Change from Baseline, Q1: −1.200
- SHAQ Visual Analogue Scale - Pain, Change from Baseline, Q3: 0.150
- SHAQ Visual Analogue Scale - Pain, Percent Change from Baseline, Max: 20.5%
- SHAQ Visual Analogue Scale - Pain, Percent Change from Baseline, Mean: −22.77%
- SHAQ Visual Analogue Scale - Pain, Percent Change from Baseline, Median: −22.58%
- SHAQ Visual Analogue Scale - Pain, Percent Change from Baseline, Min: −72.2%
- SHAQ Visual Analogue Scale - Pain, Percent Change from Baseline, Q1: −53.33%
- SHAQ Visual Analogue Scale - Pain, Percent Change from Baseline, Q3: 11.54%
- SHAQ Visual Analogue Scale - Raynaud’s, Change from Baseline, Max: 1.50
- SHAQ Visual Analogue Scale - Raynaud’s, Change from Baseline, Mean: −0.696
- SHAQ Visual Analogue Scale - Raynaud’s, Change from Baseline, Median: −0.300
